Reference: US20100240746A1, “STEREOISOMERS OF TRICYCLODECAN-9-YL-XANTHOGENATE” (LUMAVITA AG, priority 2007, published 2010)
In brackets after ≈: the same amount, converted by molar mass.

How the values were obtained:
Calu-6 cells = test: Cytotoxicity assay in Calu-6 cells (crystal violet); type: cell-based; details: 48 hr
Description: (§1) Calu-6 cells and RITA cells were grown in DMEM cell culture medium containing 10% fetal calf serum in CO2 incubator under 5% CO2 at 37° C. with 100% humidity.
(§2) For cytotoxicity assay, Calu-6 cells were seeded in 96 well plates at a density of 3×10^6 cells per plate in the DMEM cell culture medium. The plates were incubated at 37° C. in the presence of 5% CO2 for 24 hr. The DMEM cell culture medium in the plates was exchanged with fresh DMEM cell culture medium containing test compounds at a series of concentrations. The plates were incubated at 37° C. in the presence of 5% CO2 for 48 hr. The plates were then washed with PBS, fixed with 3% formaldehyde solution containing 0.9% NaCl for 1 min, washed by water for 10 sec, and dried overnight. For detection, the plates were stained with crystal violet solution for 5 min at room temperature, washed 5 times with water, and dried at room temperature overnight. After adding ethanol/acetic acid (99:1, v/v, […]) to each well, the plates were measured at 595 nm using an ELISA reader. A dose response curve was obtained for each compound tested by plotting the mean values of the optical densities against compound concentration.

HPV-31 specific DNA [1] = test: Long-term study: HPV-31 specific DNA level (Southern blot); type: cell-based, human papilloma virus; details: for T50 DNA: at 10 μg/mL
Description: (§3) HPV-31 infected cells (3×10^6) were dispensed into 14.5 cm dishes containing fresh E medium and 1×10^6 cells of mitomycin C-treated 3T3 fibroblast feeders. The dishes were incubated in a CO2 incubator under 5% CO2 at 37° C. in 100% humidity. Human A431 epithelial cancer cells were used as HPV-uninfected negative controls. After 6 hr incubation, the cell culture medium was removed and fresh E medium containing 0.85 g/L NaHCO3 and a test compound at concentrations of 10 and 3.3 μg/mL, or control (interferon γ at 200 IU/mL) were added. For each concentration, 4 dishes were prepared. The dishes were incubated at 37° C. in a CO2 incubator. The culture medium was replaced to new E medium containing each concentration of the test compound or control in every 72 hrs. After seven days, or when untreated cells became confluent, one dish of each group was harvested for DNA/RNA extraction, followed by Southern/Northern Blot analysis; and one dish was trypsinized, cell number were determined and cells were seeded in three new dishes, treated and cultured as described above. This procedure was repeated for 9 passages. During these passages, morphology of cells and cell density were monitored.
(§4) Effect on HPV-31 specific DNA and RNA: DNA and RNA were analyzed in Southern and Northern Blot gels for HPV-31 specific sequences. X-ray films were scanned and optical densities of HPV-31 specific DNA and major mRNA species were integrated. Time curves were established by plotting integrated values against number of passages for each treatment dose. The T50 (time required to reduce the level to 50% of control) was determined from the time curves from crossing points of time curves with a line parallel to the x-axis corresponding to 50% of integrals of untreated control sample.

HPV-31 specific DNA [2] = test: Short-term study: HPV-31 specific DNA (Southern blot); type: cell-based, human papilloma virus; details: at 32 μg/mL, 72 hrs
Description: (§5) Effect on HPV-31 specific DNA and RNA. HPV-31 infected cells (3×10^6) were dispensed into 14.5 cm dishes containing fresh E culture medium and 1×10^6 mitomycin C-treated J2 3T3 fibroblast feeders. After 6 hrs, fresh medium containing 0.85 g/L NaHCO3 and a test compound at a series of concentrations (0, 0.5, 1, 2, 4, 8, 16, and 32 μg/mL) were added. All samples were tested in duplicates at each concentration. After incubation at 37° C. for 72 hrs, the feeder cells were removed with 4 mM EDTA, and DNA and RNA was then isolated. The isolated DNA and RNA were analyzed in Southern and Northern Blot gels for HPV-31 specific sequences. Human A431 epithelial cancer cells were used as HPV-uninfected negative control. X-ray films were scanned and optical densities of HPV-31 specific DNA and major mRNA species were integrated.
(§6) Dose response curves were established by plotting integrated values against the concentrations of the test compound.

[3] = test system: HPV-31-infected CIN612 9E keratinocytes; test: Long-term study: cell proliferation and morphology of CIN612 9E cells over 9 passages; type: cell-based
Description: as §3
Effect on cell proliferation. Cell numbers in the dishes harvested were determined in a Neubauer hematocytometer. The multiplication factor was determined at every step of passage. The cell number of each culture at the end of the passage was divided by the number of seeded cells at the start of each passage. The end point was reached when keratinocytes treated with a test compound stopped growing. Stop of cell growth was defined as a multiplication factor of no greater than 1.

[4] = target: T1, phosphatidylcholine-specific phospholipase C (PC-PLC) (Bacillus cereus, UniProt P09598); test: Amplex Red phosphatidylcholine-specific phospholipase C (PC-PLC) inhibition assay; type: biochemical, B. cereus; details: 30 min at 37° C., triplicate
T1 construct: purchased Invitrogen
Description: (§7) The inhibitory activities of optically active potassium salts of (+)- and (−)-O-exo/C-exo-tricyclo [5.2.1.0^2,6]-dec-9-yl-xanthic acid 1A ((+)- and (−)-enantiomers 1A) against phosphatidylcholine-specific phospholipase C were evaluated, together with D609 and potassium salt of racemic O-exo/C-exo xanthic acid 1A (racemic 1A), using Amplex Red phosphatidylcholine-specific phospholipase C(PC-PLC) assay kit, which was obtained from Invitrogen (Calsbad, Calif.). D609 was obtained from Sigma Aldrich.
(§8) An Amplex Red stock solution (˜20 mM), a working reaction buffer, and a horseradish peroxidase stock solution (200 U/mL), a H2O2 working solution (20 mM), a choline oxidate stock solution (20 U/mL), an alkaline phosphatase stock solution (400 U/mL), and a B. cereus PC-PLC stock solution (10 U/mL) were prepared according to the instruction of the assay kit. The stock solution (100 mg/mL) for each test compound was also prepared by dissolving the compound in water 2 hr prior to the start of the experiment.
(§9) A working Amplex Red/HRP/lecithin solution was prepared by adding 200 μL of Amplex Red reagent stock solution, 100 μL of HRP stock solution, 200 μL of alkaline phosphatase stock solution, 100 μL of choline oxidase stock solution, and 78 μL of the lecithin solution to […] of the working reaction buffer. PC-PLC solution (0.2 U/mL) was prepared by diluting the PC-PLC stock solution with the working reaction buffer to the desired concentration.
(§10) The test compound (25 μL) at a serious of concentrations was pipetted into a 96 well plate. For uninhibited PC-PLC controls and non-PC-PLC controls, 25 μL of water was added. After the addition of 50 μL of the Amplex Red/HRP/lecithin working solution, the reaction was initiated by adding 25 μL of PC-PLC solution to each well. To the non-PC-PLC controls, 25 μL of water was added instead of PC-PLC solution. The experiment was performed in triplicate. The reactions were protected from light. After incubated for 30 min at 37° C., the reactions were measured with a fluorescence microplate reader using excitation at 550 nm and emission detection at 590 nm. The fluorescent data obtained were corrected for background fluorescence by subtracting the values obtained from the non-PC-PLC controls.

HPV-31 specific RNA [5] = test: Short-term study: HPV-31 specific RNA expression (Northern blot); type: cell-based, human papilloma virus; details: 72 hrs
Description: as §5, §6

HPV-31 specific RNA [6] = test: Long-term study: HPV-31 specific RNA level (Northern blot); type: cell-based, human papilloma virus; details: for T50 RNA: at 10 μg/mL
Description: as §3, §4

[7] = Cytotoxicity assay in Calu-6 cells; type: cell-based; details: human, 37° C., read-out: LD50
Description: as §1, §2

[8] = target: T2, B. cereus PC-PLC (phosphatidylcholine-specific phospholipase C) (Bacillus cereus, UniProt P09598); test: Inhibition of phosphatidylcholine-specific phospholipase C (Amplex Red PC-PLC assay kit); type: biochemical
T2 construct: purchased Invitrogen
Description: as §7, §8, §9
as §10, with “To the non-PC-PLC controls, 25 μL of water was added instead of PC-PLC solution. The experiment was performed in triplicate. The reactions were protected from light.” left out

[9] = test system: phosphatidylcholine-specific phospholipase C (PC-PLC); details: Amtmann 1996; Muller-Decker 1989; cited from earlier work
[10] = test system: bovine papilloma virus type I (BPV-1)-transformed HEF (HEF-BPV); test: Inhibition of bovine papilloma virus, BPV-infected hamster embryo fibroblasts (HEF) cell proliferation assay; type: cell-based; details: Bos taurus papillomavirus 1; HEF-BPV, 72 hr, 37° C., pH 6.8; read-out: IC50
Description: Briefly, hamster embryo fibroblasts and bovine papilloma virus type I (BPV-1)-transformed HEF (HEF-BPV) were grown in Eagle's basal medium. […] and HEF cells were seeded in 96-well plates at a density of 0.5×10^6 cells per plate in DMEM cell culture medium containing 10% fetal calf serum at pH 6.8. The plates were then incubated in the presence of 5% CO2 in 100% humidity at 37° C. After 6 hr, the cell culture medium in the plates was exchanged with fresh DMEM cell culture medium containing test compounds at a series of concentrations. The plates were incubated at 37° C. for additional 72 hr. Cells in the plates were then washed with PBS, fixed with 3% formaldehyde solution containing 0.9% NaCl for 1 min, washed by water for 10 sec, and dried overnight. For detection, the plates were stained with crystal violet solution for 5 min at room temperature, washed 5 times with water, and dried at room temperature overnight. After adding ethanol/acetic acid (99:1, v/v, […]) to each well, the plates were measured at 595 nm using an ELISA reader.

[11] = test system: Herpes simplex virus type-2 (HSV-2); test: Inhibition of HSV-2 (plaque assay; Calu-6 infected, RITA cells for plaques); type: cell-based
Description: as §1
For HSV-2 inhibition, Calu-6 cells were seeded in 96 well plates at a density of 3×10^6 cells per plate in the DMEM cell culture medium. The plates were incubated at 37° C. in the presence of 5% CO2 for 24 hr. The DMEM cell culture medium in the plates was removed and the cells were infected with Herpes simplex virus type-2 at 50 plaque forming units per well. After incubation at 37° C. for 60 min, test compounds in DMEM cell culture medium at a series of concentrations were added. The plates were incubated at 37° C. in the presence of 5% CO2 for 48 hr. The plates were frozen at −20° C. prior to further analysis. After thawing at room temperature, supernatants containing infectious virus particles were prepared by centrifuging the supernatant from each well at 18,000 g at 4° C. for 5 min. The supernatant was further diluted before assay.
RITA cells were seeded in 24 well Linbra plates at a density of 4×10^6 cells per plate in 2 mL of DMEM cell culture medium. The plates were incubated at 37° C. in the presence of 5% CO2 for 24 hr. After the removal of the cell culture medium, 0.1 mL of the diluted supernatants was added and the plates were incubated at 37 C for 1 hr. DMEM cell medium containing 10% fetal calf serum and 0.5% methyl cellulose was added and the plates were incubated at 37 for 48 hr. The plates were then washed with PBS, fixed with 3% formaldehyde solution containing 0.9% NaCl for 1 min, washed by water for 10 sec, and dried overnight. For detection, the plates were then stained with crystal violet solution for 5 min at room temperature, washed 5 times with water, and dried at room temperature overnight. The number of plaques was determined macroscopically. The number of plaques per well was then multiplied with the dilution factor. Dose response curves were obtained by plotting the number of plaques/0.1 mL against compound concentration. The therapeutic index was also calculated for each compound by dividing LD50 with IC50.

T1 sequence (P09598 39-283 limits assumed): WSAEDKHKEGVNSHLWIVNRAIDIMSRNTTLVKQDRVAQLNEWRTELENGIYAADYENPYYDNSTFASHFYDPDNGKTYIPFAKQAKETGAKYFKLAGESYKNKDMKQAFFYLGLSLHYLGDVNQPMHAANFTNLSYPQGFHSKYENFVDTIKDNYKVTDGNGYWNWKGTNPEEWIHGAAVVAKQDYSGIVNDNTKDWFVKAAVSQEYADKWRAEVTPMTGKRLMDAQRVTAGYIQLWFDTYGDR
T2 sequence (P09598 39-283 limits assumed): as above

S=C(S)OC1CC2CC1C1CCCC21 (single isomer, unassigned; enantiomer 1a) [(−)-Enantiomer 1A, (−)-O-exo/C-exo-tricyclo[5.2.1.0^2,6]-dec-9-yl-xanthic acid 1A]
LD50 (Calu-6 cells): 94.32 ± 7.33 µg/mL
number of viral genomes per cell remaining (HPV-31 specific DNA [1]; 10 μg/mL, after 6 passages): < 5%
viral DNA remaining (HPV-31 specific DNA [1]; 10 μg/mL, after 9 passages): < 1%
reduction of the number of viral genomes per cell (HPV-31 specific DNA [1]; 10 μg/mL, after a single passage): more than 50%
T50 DNA (HPV-31 specific DNA [1]; listed as (−)-enantiomer 1A): < 1 passages
T50 DNA (HPV-31 specific DNA [1]; listed as Cmpd 1A): <1 passages
inhibition of HPV-31 specific DNA (HPV-31 specific DNA [2]): 37.5%
multiplication factor ([3]; 3.3 μg/mL, passage 1): 2.9
multiplication factor ([3]; 3.3 μg/mL, passage 9): 1.1
multiplication factor ([3]; 10 μg/mL, from passage 7 on): < 1
multiplication factor ([3]; 10 μg/mL, passage 5): 2.4
multiplication factor ([3]; 10 μg/mL, passage 6): 1.3
multiplication factor ([3]; 10 μg/mL, passage 9): 0.1
IC50 [4]: 3.62 ± 0.17 µg/mL (≈ 15.9 µM)
IC50 on the inhibition of HPV-31 specific RNA expression (HPV-31 specific RNA [5]): 10.7 µg/mL
viral RNA remaining (HPV-31 specific RNA [6]; 10 μg/mL, after 9 passages): < 1%
T50 RNA (HPV-31 specific RNA [6]; listed as (−)-enantiomer 1A): < 1 passages
T50 RNA (HPV-31 specific RNA [6]; listed as Cmpd 1A): <1 passages

S=C(S)OC1CC2CC1C1CCCC21 (centres unmarked) [Compound D609, tricyclodecan-9-yl-xanthogenate]
CC50 at 48 h [7]: 105 ± 22 µg/mL (≈ 461 µM)
IC50 [8]: 89.7 µM
LD50 (Calu-6 cells): 105.18 ± 21.97 µg/mL
inhibition of phosphatidylcholine-specific phospholipase C [9]: specific inhibitor
IC50 [10]: 21.6 ± 1.85 µg/mL (≈ 94.8 µM)
IC50 ([11]; Human alphaherpesvirus 2, Calu-6 cells, 48 hr, 50 plaque forming units per well, read-out: IC50): 30.2 ± 6.77 µg/mL (≈ 132 µM)
Therapeutic Index ([11]; LD50 (Calu-6) divided by IC50 (HSV-2), 2880 min): 3.5
IC50 [4]: 20.49 ± 1.99 µg/mL (≈ 89.7 µM)
